According to patent US4864021A, “5-fluorouracil derivatives” (Otsuka Pharmaceutical Co., Ltd., priority 1984, dated 1989):

Tested on: not listed separately
Experiment: Acute toxicity, oral, 14 days observation, Litchfield-Wilcoxon method
Conditions: mouse, in vivo, 5-week-old ICR male mice
Method: The compounds of the present invention prepared in Examples 2 and 54 were each orally administered to 5-week-old ICR male mice (8 mice in each group) to check the mice for the symptoms, change of weight and mortality by observing the mice for 14 consecutive days after the administration of the compounds. The LD50 value was determined from the mortality by the Litchfield-Wilcoxon method with the results shown below in Table 3.

With `O=c1[nH]c(=O)n([C@H]2C[C@H](OCc3ccccc3)[C@@H](CO)O2)cc1F` [Example 2, 3'-O-benzyl-2'-deoxy-5-fluorouridine] as the molecule, how does the LD50 at 336 h read?
The LD50 at 336 h was over 1000 mg/kg.

Which LD50 at 336 h does the source give for `CC(=O)OC[C@H]1O[C@@H](n2cc(F)c(=O)[nH]c2=O)C[C@@H]1OCc1ccccc1` [Example 54, 3'-O-benzyl-5'-O-acetyl-2'-deoxy-5-fluorouridine] here?
The LD50 at 336 h was over 1000 mg/kg.

Tested on: Sarcoma-180
Experiment: Antitumor test: Sarcoma-180 subcutaneously transplanted in ICR mice, oral once a day for 7 days, tumor weight on 10th day (50% tumor inhibition dose)
Format: in vivo
Conditions: Mus musculus, 240 h, Table 1, Sarcoma-180 s.c. in ICR mice, once a day for 7 consecutive days, tumor weight on 10th day, read-out: ED50 (50% tumor inhibition dose, T/C is 0.5)
Method: (a) Sarcoma-180 subcultured in an ascites of ICR mice was diluted with a physiological saline solution and subcutaneously transplated into the backs of ICR mice in an amount of 2×10^7 each. Twenty-four hours after the transplantation, a test compound suspended in a 5% solution of gum arabic was orally administered to each of mice once a day for 7 consecutive days.
The solid tumor was extirpated from under the dorsal skin of mice on the 10th day after the transplantation to measure the weight of the tumor. There was determined the ratio (T/C) of the weight of tumor (T) cut out from the group of mice treated with the test compound to the weight of tumor (C) from the group of mice not treated therewith. The 50% tumor inhibition dose (ED50 value) in which T/C is 0.5 was determined from the dose-response curve of dosage and the ratio (T/C).

With `O=c1[nH]c(=O)n([C@H]2C[C@H](OCc3ccccc3)[C@@H](CO)O2)cc1F` [drawing 480] as the molecule, how does the ED50 read?
Its ED50 is 8 mg/kg.

With `O=c1[nH]c(=O)n([C@H]2C[C@H](OCc3ccccc3F)[C@@H](CO)O2)cc1F` [Example 2] as the molecule, how does the ED50 read?
Its ED50 is 8 mg/kg.

With `CC(=O)OC[C@H]1O[C@@H](n2cc(F)c(=O)[nH]c2=O)C[C@@H]1OCc1ccccc1` [Example 54, 3'-O-benzyl-5'-O-acetyl-2'-deoxy-5-fluorouridine] as the molecule, how does the ED50 read?
The ED50 was 15 mg/kg.

Same assay, conditions: Mus musculus, 240 h, Table 2, same manner as in (a): Sarcoma-180 s.c. in ICR mice, once a day for 7 consecutive days, read-out: ED50 (50% tumor inhibition dose, T/C is 0.5)

With `CC(=O)OC[C@H]1O[C@@H](n2cc(F)c(=O)n(C(=O)c3cccc(C(=O)Oc4cc(OC(=O)c5ccccc5)c(Cl)cn4)c3)c2=O)C[C@@H]1OC(C)=O` [Example 197, 3-[3-(4-benzoyloxy-5-chloro-2-pyridyloxycarbonyl)benzoyl]-2'-deoxy-3',5'-di-O-acetyl-5-fluorouridine] as the molecule, how does the ED50 read?
Its ED50 is 7 mg/kg.

With `CC(=O)Oc1cc(OC(=O)c2cccc(C(=O)n3c(=O)c(F)cn([C@@H]4O[C@H](C)[C@@H](OC(C)=O)[C@H]4OC(C)=O)c3=O)c2)c(Cl)cn1` [Example 201, 3-[3-(2-acetoxy-5-chloro-4-pyridyloxycarbonyl)benzoyl]-5'-deoxy-2',3'-di-O-acetyl-5-fluorouridine] as the molecule, how does the ED50 read?
The ED50 was 12 mg/kg.

Which ED50 does the source give for `CCOCn1cc(F)c(=O)n(C(=O)c2cccc(C(=O)Oc3nc(OC(=O)c4ccccc4)ccc3C#N)c2)c1=O` [Example 227, 3-[3-(3-cyano-6-benzoyloxy-2-pyridyloxycarbonyl)benzoyl]-1-ethoxymethyl-5-fluorouracil] here?
Its ED50 is 5 mg/kg.

For `CC(=O)OC[C@H]1O[C@@H](n2cc(F)c(=O)n(C(=O)c3cccc(C(=O)Oc4cc(OC(=O)c5ccccc5)c(Cl)cn4)c3)c2=O)[C@H](OC(C)=O)[C@@H]1OC(C)=O` [Example 202, 3-[3-(4-benzoyloxy-5-chloro-2-pyridyloxycarbonyl)benzoyl]-5-fluoro-2',3',5'-tri-O-acetyluridine], which ED50 is on record?
The ED50 was 22 mg/kg.

With `O=C(Oc1cc(OC(=O)c2ccccc2)c(Cl)cn1)c1cccc(C(=O)n2c(=O)c(F)cn([C@H]3C[C@H](OCc4ccccc4)[C@@H](COCc4ccccc4)O3)c2=O)c1` [Example 208, 3-[3-(4-benzoyloxy-5-chloro-2-pyridyloxycarbonyl)benzoyl]-2'-deoxy-3',5'-di-O-benzyl-5-fluorouridine] as the molecule, how does the ED50 read?
Its ED50 is 5 mg/kg.
